Source: ChEMBL document CHEMBL4229379, “Synthesis and structure-activity relationship of novel bisindole amidines active against MDR Gram-positive and Gram-negative bacteria” (Eur J Med Chem, 2018)
Converted amounts (≈) assume the structure as drawn.

Experiments:
[1] = tested on: Staphylococcus epidermidis; test: Antibacterial activity against methicillin-sensitive Staphylococcus epidermidis ATCC 12228 after 18 hrs by CLSI broth microdilution method; assay type: functional; conditions: ATCC 12228, 18 h
[2] = tested on: Staphylococcus epidermidis; test: Antibacterial activity against methicillin-resistant Staphylococcus epidermidis 12-8 after 18 hrs by CLSI broth microdilution method; assay type: functional; conditions: 12-8, 18 h
Staphylococcus aureus [3] = test: Antibacterial activity against methicillin-sensitive Staphylococcus aureus ATCC 29213 after 18 hrs by CLSI broth microdilution method; assay type: functional; conditions: ATCC 29213, 18 h
Staphylococcus aureus [4] = test: Antibacterial activity against methicillin-resistant Staphylococcus aureus 12-33 after 18 hrs by CLSI broth microdilution method; assay type: functional; conditions: 12-33, 18 h
Enterococcus faecalis [5] = test: Antibacterial activity against vancomycin-sensitive Enterococcus faecalis ATCC 29212 after 18 hrs by CLSI broth microdilution method; assay type: functional; conditions: ATCC 29212, 18 h
Enterococcus faecalis [6] = test: Antibacterial activity against vancomycin-resistant Enterococcus faecalis 09-9 after 18 hrs by CLSI broth microdilution method; assay type: functional; conditions: 09-9, 18 h
Enterococcus faecium [7] = test: Antibacterial activity against vancomycin-resistant Enterococcus faecium ATCC 700221 after 18 hrs by CLSI broth microdilution method; assay type: functional; conditions: ATCC 700221, 18 h
Enterococcus faecium [8] = test: Antibacterial activity against vancomycin-sensitive Enterococcus faecium 12-3 after 18 hrs by CLSI broth microdilution method; assay type: functional; conditions: 12-3, 18 h
Escherichia coli [9] = test: Antibacterial activity against extended-spectrum beta-lactamase deficient Escherichia coli ATCC 25922 after 18 hrs by CLSI broth microdilution method; assay type: functional; conditions: ATCC 25922, 18 h
Escherichia coli [10] = test: Antibacterial activity against extended-spectrum beta-lactamase harboring Escherichia coli 12-15 after 18 hrs by CLSI broth microdilution method; assay type: functional; conditions: 12-15, 18 h
Klebsiella pneumoniae [11] = test: Antibacterial activity against extended-spectrum beta-lactamase harboring Klebsiella pneumoniae ATCC 700603 after 18 hrs by CLSI broth microdilution method; assay type: functional; conditions: Klebsiella pneumoniae, 700603, 18 h
Klebsiella pneumoniae [12] = test: Antibacterial activity against new delhi metallo-beta-lactamase-1 harboring Klebsiella pneumoniae ATCC BAA-2146 after 18 hrs by CLSI broth microdilution method; assay type: functional
Klebsiella pneumoniae [13] = test: Antibacterial activity against extended-spectrum beta-lactamase harboring Klebsiella pneumoniae 12-8 after 18 hrs by CLSI broth microdilution method; assay type: functional; conditions: 12-8, 18 h
Pseudomonas aeruginosa [14] = test: Antibacterial activity against Pseudomonas aeruginosa ATCC 27853 after 18 hrs by CLSI broth microdilution method; assay type: functional; conditions: ATCC 27853, 18 h
[15] = tested on: Acinetobacter calcoaceticus; test: Antibacterial activity against Acinetobacter calcoaceticus ATCC 19606 after 18 hrs by CLSI broth microdilution method; assay type: functional; conditions: ATCC 19606, 18 h
Enterobacter cloacae [16] = test: Antibacterial activity against Enterobacter cloacae ATCC 43560 after 18 hrs by CLSI broth microdilution method; assay type: functional; conditions: ATCC 43560, 18 h
Proteus mirabilis = test: Antibacterial activity against Proteus mirabilis 12-6 after 18 hrs by CLSI broth microdilution method; assay type: functional; conditions: 12-6, 18 h
[17] = Cytotoxicity against HEK293T cells assessed as reduction in cell viability after 48 hrs by MTS assay; assay type: cell-based, HEK-293T; conditions: human
[18] = tested on: Staphylococcus epidermidis; test: Antibacterial activity against methicillin-sensitive Staphylococcus epidermidis 12-6 after 18 hrs by CLSI broth microdilution method; assay type: functional; conditions: 12-6, 18 h
Staphylococcus aureus [19] = test: Antibacterial activity against methicillin-resistant Staphylococcus aureus ATCC 33591 after 18 hrs by CLSI broth microdilution method; assay type: functional; conditions: ATCC 33591, 18 h
Staphylococcus aureus [20] = test: Antibacterial activity against methicillin-sensitive Staphylococcus aureus 15 after 18 hrs by CLSI broth microdilution method; assay type: functional; conditions: Staphylococcus aureus, 15, 18 h
Staphylococcus aureus [21] = test: Antibacterial activity against methicillin-sensitive Staphylococcus aureus 12-28 after 18 hrs by CLSI broth microdilution method; assay type: functional; conditions: 12-28, 18 h
Enterococcus faecalis [22] = test: Antibacterial activity against vancomycin-resistant Enterococcus faecalis ATCC 51299 after 18 hrs by CLSI broth microdilution method; assay type: functional; conditions: ATCC 51299, 18 h
Enterococcus faecalis [23] = test: Antibacterial activity against vancomycin-sensitive Enterococcus faecalis 12-5 after 18 hrs by CLSI broth microdilution method; assay type: functional; conditions: 12-5, 18 h
Enterococcus faecium [24] = test: Antibacterial activity against vancomycin-resistant Enterococcus faecium 12-1 after 18 hrs by CLSI broth microdilution method; assay type: functional; conditions: 12-1, 18 h
Escherichia coli [25] = test: Antibacterial activity against extended-spectrum beta-lactamase deficient Escherichia coli 1515 after 18 hrs by CLSI broth microdilution method; assay type: functional; conditions: Escherichia coli, 1515, 18 h
Escherichia coli [26] = test: Antibacterial activity against extended-spectrum beta-lactamase deficient Escherichia coli 12-14 after 18 hrs by CLSI broth microdilution method; assay type: functional; conditions: 12-14, 18 h
Klebsiella pneumoniae [27] = test: Antibacterial activity against extended-spectrum beta-lactamase deficient Klebsiella pneumoniae 7 after 18 hrs by CLSI broth microdilution method; assay type: functional; conditions: Klebsiella pneumoniae, 7, 18 h
Klebsiella pneumoniae [28] = test: Antibacterial activity against extended-spectrum beta-lactamase deficient Klebsiella pneumoniae 12-4 after 18 hrs by CLSI broth microdilution method; assay type: functional; conditions: 12-4, 18 h
Pseudomonas aeruginosa [29] = test: Antibacterial activity against Pseudomonas aeruginosa PAO1 after 18 hrs by CLSI broth microdilution method; assay type: functional; conditions: PAO1, 18 h
Pseudomonas aeruginosa [30] = test: Antibacterial activity against Pseudomonas aeruginosa 12-16 after 18 hrs by CLSI broth microdilution method; assay type: functional; conditions: 12-16, 18 h
Klebsiella aerogenes [31] = test: Antibacterial activity against Enterobacter aerogenes ATCC 13048 after 18 hrs by CLSI broth microdilution method; assay type: functional; conditions: ATCC 13048, 18 h
Serratia marcescens = test: Antibacterial activity against Serratia marcescens ATCC 21074 after 18 hrs by CLSI broth microdilution method; assay type: functional; conditions: ATCC 21074, 18 h
Providencia rettgeri = test: Antibacterial activity against Providencia rettgeri ATCC 31052 after 18 hrs by CLSI broth microdilution method; assay type: functional; conditions: ATCC 31052, 18 h
Proteus vulgaris = test: Antibacterial activity against Proteus vulgaris ATCC 29905 after 18 hrs by CLSI broth microdilution method; assay type: functional; conditions: ATCC 29905, 18 h
[32] = tested on: Stenotrophomonas maltophilia; test: Antibacterial activity against Stenotrophomonas maltophilia ATCC 13636 after 18 hrs by CLSI broth microdilution method; assay type: functional; conditions: ATCC 13636, 18 h
Citrobacter freundii = test: Antibacterial activity against Citrobacter freundii ATCC 43864 after 18 hrs by CLSI broth microdilution method; assay type: functional; conditions: ATCC 43864, 18 h
Staphylococcus aureus [33] = test: Potency index, ratio of levofloxacin MIC to compound MIC for methicillin-resistant Staphylococcus aureus 12-33; assay type: functional
Staphylococcus aureus [34] = test: Potency index, ratio of levofloxacin MIC to compound MIC for methicillin-resistant Staphylococcus aureus ATCC 33591; assay type: functional
Enterococcus faecalis [35] = test: Potency index, ratio of levofloxacin MIC to compound MIC for vancomycin-resistant Enterococcus faecalis ATCC 51299; assay type: functional
Enterococcus faecium [36] = test: Potency index, ratio of levofloxacin MIC to compound MIC for vancomycin-resistant Enterococcus faecium ATCC 700221; assay type: functional
Enterococcus faecalis [37] = test: Potency index, ratio of levofloxacin MIC to compound MIC for vancomycin-resistant Enterococcus faecalis 09-9; assay type: functional
Enterococcus faecium [38] = test: Potency index, ratio of levofloxacin MIC to compound MIC for vancomycin-resistant Enterococcus faecium 12-1; assay type: functional
Escherichia coli [39] = test: Antibacterial activity against extended-spectrum beta-lactamase harboring Escherichia coli 13-1 after 18 hrs by CLSI broth microdilution method; assay type: functional
Escherichia coli [40] = test: Antibacterial activity against extended-spectrum beta-lactamase harboring Escherichia coli CDC1001728 after 18 hrs by CLSI broth microdilution method; assay type: functional
Klebsiella pneumoniae [41] = test: Antibacterial activity against new delhi metallo-beta-lactamase-1 harboring Klebsiella pneumoniae 13-1 after 18 hrs by CLSI broth microdilution method; assay type: functional
Klebsiella pneumoniae [42] = test: Antibacterial activity against carbapenem-resistant Klebsiella pneumoniae 12-11 after 18 hrs by CLSI broth microdilution method; assay type: functional
Klebsiella pneumoniae [43] = test: Antibacterial activity against carbapenem-resistant Klebsiella pneumoniae 12-12 after 18 hrs by CLSI broth microdilution method; assay type: functional
[44] = tested on: Acinetobacter calcoaceticus; test: Antibacterial activity against new delhi metallo-beta-lactamase-1 harboring Acinetobacter calcoaceticus 13-1 after 18 hrs by CLSI broth microdilution method; assay type: functional
[45] = tested on: Acinetobacter calcoaceticus; test: Antibacterial activity against carbapenem-resistant Acinetobacter calcoaceticus 12-6 after 18 hrs by CLSI broth microdilution method; assay type: functional
Klebsiella aerogenes [46] = test: Antibacterial activity against carbapenem-resistant Enterobacter aerogenes 11-4 after 18 hrs by CLSI broth microdilution method; assay type: functional
Enterobacter cloacae [47] = test: Antibacterial activity against new delhi metallo-beta-lactamase-1 harboring Enterobacter cloacae CDC1000654 after 18 hrs by CLSI broth microdilution method; assay type: functional
Enterobacter cloacae [48] = test: Antibacterial activity against new delhi metallo-beta-lactamase-1 harboring Enterobacter cloacae 13-1 after 18 hrs by CLSI broth microdilution method; assay type: functional

## N=C(c1ccc2cc(-c3ccc(-c4cc5ccc(C(=N)N6CCC(N7CCCC7)CC6)cc5[nH]4)cc3)[nH]c2c1)N1CCC(N2CCCC2)CC1
[1]
  MIC: 4 µg/mL (≈ 6 µM)
[2]
  MIC: 8 µg/mL (≈ 12 µM)
Staphylococcus aureus [3]
  MIC: 8 µg/mL (≈ 12 µM)
Staphylococcus aureus [4]
  MIC: 8 µg/mL (≈ 12 µM)
Enterococcus faecalis [5]
  MIC: 16 µg/mL (≈ 24 µM)
Enterococcus faecalis [6]
  MIC: 16 µg/mL (≈ 24 µM)
Enterococcus faecium [7]
  MIC: 16 µg/mL (≈ 24 µM)
Enterococcus faecium [8]
  MIC: 16 µg/mL (≈ 24 µM)
Escherichia coli [9]
  MIC: 8 µg/mL (≈ 12 µM)
Escherichia coli [10]
  MIC: 16 µg/mL (≈ 24 µM)
Klebsiella pneumoniae [11]
  MIC: 64 µg/mL (≈ 96 µM)
Klebsiella pneumoniae [12]; ATCC BAA-2146, 18 h
  MIC: 32 µg/mL (≈ 48 µM)
Klebsiella pneumoniae [13]
  MIC: 16 µg/mL (≈ 24 µM)
Pseudomonas aeruginosa [14]
  MIC: 16 µg/mL (≈ 24 µM)
[15]
  MIC: > 128 µg/mL
Enterobacter cloacae [16]
  MIC: 16 µg/mL (≈ 24 µM)
Proteus mirabilis
  MIC: > 128 µg/mL
[17]
  CC50 at 48 h: 50 µg/mL (≈ 75 µM)
[18]
  MIC: 8 µg/mL (≈ 12 µM)
Staphylococcus aureus [19]
  MIC: 8 µg/mL (≈ 12 µM)
Staphylococcus aureus [20]
  MIC: 8 µg/mL (≈ 12 µM)
Staphylococcus aureus [21]
  MIC: 8 µg/mL (≈ 12 µM)
Enterococcus faecalis [22]
  MIC: 32 µg/mL (≈ 48 µM)
Enterococcus faecalis [23]
  MIC: 64 µg/mL (≈ 96 µM)
Enterococcus faecium [24]
  MIC: 16 µg/mL (≈ 24 µM)
Escherichia coli [25]
  MIC: 16 µg/mL (≈ 24 µM)
Escherichia coli [26]
  MIC: 16 µg/mL (≈ 24 µM)
Klebsiella pneumoniae [27]
  MIC: 16 µg/mL (≈ 24 µM)
Klebsiella pneumoniae [28]
  MIC: 16 µg/mL (≈ 24 µM)
Pseudomonas aeruginosa [29]
  MIC: 128 µg/mL (≈ 192 µM)
Pseudomonas aeruginosa [30]
  MIC: 128 µg/mL (≈ 192 µM)
Klebsiella aerogenes [31]
  MIC: 16 µg/mL (≈ 24 µM)
Serratia marcescens
  MIC: > 128 µg/mL
Providencia rettgeri
  MIC: 128 µg/mL (≈ 192 µM)
Proteus vulgaris
  MIC: 128 µg/mL (≈ 192 µM)
[32]
  MIC: 128 µg/mL (≈ 192 µM)
Citrobacter freundii
  MIC: 16 µg/mL (≈ 24 µM)
Staphylococcus aureus [33]
  Ratio: 4 - 128
Staphylococcus aureus [34]
  Ratio: 4 - 128
Enterococcus faecalis [35]
  Ratio: 4 - 512
Enterococcus faecium [36]
  Ratio: 4 - 512
Enterococcus faecalis [37]
  Ratio: 4 - 512
Enterococcus faecium [38]
  Ratio: 4 - 512

## C[C@@H](O)[C@H]1C(=O)N2C(C(=O)O)=C(S[C@@H]3CN[C@H](C(=O)N(C)C)C3)[C@H](C)[C@H]12 [MEROPENEM]
Escherichia coli [39]; 13-1, 18 h
  MIC: 4 µg/mL (≈ 10.4 µM)
Escherichia coli [40]; CDC1001728, 18 h
  MIC: 2 µg/mL (≈ 5.22 µM)
Klebsiella pneumoniae [41]; 13-1, 18 h
  MIC: 8 µg/mL (≈ 20.9 µM)
Klebsiella pneumoniae [42]; 12-11, 18 h
  MIC: 64 µg/mL (≈ 167 µM)
Klebsiella pneumoniae [43]; 12-12, 18 h
  MIC: 32 µg/mL (≈ 83.4 µM)
[44]; 13-1, 18 h
  MIC: 64 µg/mL (≈ 167 µM)
[45]; 12-6, 18 h
  MIC: 32 µg/mL (≈ 83.4 µM)
Klebsiella aerogenes [46]; 11-4, 18 h
  MIC: 32 µg/mL (≈ 83.4 µM)
Enterobacter cloacae [47]; CDC1000654, 18 h
  MIC: 2 µg/mL (≈ 5.22 µM)
Enterobacter cloacae [48]; 13-1, 18 h
  MIC: 32 µg/mL (≈ 83.4 µM)

## COLISTIN
Klebsiella pneumoniae [12]
  MIC: 0.5 µg/mL
Escherichia coli [39]
  MIC: 0.5 µg/mL
Escherichia coli [40]
  MIC: 0.5 µg/mL
Klebsiella pneumoniae [41]
  MIC: 0.5 µg/mL
Klebsiella pneumoniae [42]
  MIC: 0.5 µg/mL
Klebsiella pneumoniae [43]
  MIC: 1 µg/mL
[44]
  MIC: 0.5 µg/mL
[45]
  MIC: 0.5 µg/mL
Klebsiella aerogenes [46]
  MIC: 0.5 µg/mL
Enterobacter cloacae [47]
  MIC: 0.5 µg/mL
Enterobacter cloacae [48]
  MIC: 0.5 µg/mL
